Reference: patent US20090269795A1, “Mutant alpha4betadelta GABAA receptor and methods of treating anxiety or irritability” (priority 2007, published 2009)

Tests used:
Conditions in all cases: 30 nM THP
[1] = molecular target: T1, α1β2δ receptors (Rattus norvegicus, UniProt P62813+P63138); assay: Whole cell patch clamp of GABA-gated current, recombinant receptors in HEK-293 cells; assay type: cell-based, rat α1, rat β2, human δ
T1 construct: expressed in transfected cells; host or cells: HEK-293
Text: Recombinant receptors: Transfection—Plasmids obtained from S. Vicini (rat α1, α5, β2, β3 and γ2), P. Whiting (human α4 and δ) and N. L. Harrison (mouse α4) were propagated in E coli DH5α and prepared using Qiagen Maxi- or Midi-prep kits. (Rat, mouse and human α1, β2, β3 and γ2 subunits are identical or nearly identical.) All receptors were transfected at a 1:1:1 ratio, except α1β2γ2 (1:1:5)^12, α4βδ (5:1:5)^13 and α4β2γ2 (5:1:1). HEK-293 cells were maintained in medium (DMEM:Ham's F-12 1:1) supplemented with 10% fetal calf serum at 37° C. in a humid 5% CO2 atmosphere. Cells were transfected using calcium phosphate or Polyfect (Qiagen) and co-transfected with enhanced green fluorescent protein (ratio of DNA to eGFP was 6:1 or 10:1 depending on the DNA concentration) for visualization. α4-containing GABAA receptors required 2-3 d for maximal levels of expression; all other receptors were recorded 1-2 d after transfection. Because mouse α4 and human α4-containing receptors yielded the same results, the currents were averaged together.
Whole cell patch clamp recording—GABA-gated currents were recorded at room temperature (20-22° C.) at a holding potential of −50 mV^14. […] Currents were recorded using an Axopatch 1D amplifier (Axon Instruments) filtered at 2 kHz (four-pole Bessel filter) and detected at 10 kHz (pClamp 5.1). […]

[2] = molecular target: T2, α4(R353C)β2δ GABAA receptors (UniProt P63138+Q9D6F4, R389C); assay: Patch clamp of GABA-gated current at mutated receptors in HEK-293 cells; assay type: cell-based, mouse α4
T2 construct: expressed in transfected cells; host or cells: HEK-293
Experimental: (§1) Whole cell patch clamp recording—GABA-gated currents were recorded at room temperature (20-22° C.) at a holding potential of −50 mV^14. The pipet solution contained (in mM): N-methyl-D-glucamine chloride 120, Cs4BAPTA 5 (Calbiochem), Mg-ATP 5, and an ATP regeneration system (20 mM Tris phosphocreatine and creatine kinase). Internal [Cl^−] or the holding potential were varied, using gluconate as the anion, to alter the direction of Cl^− flow, corrected for the junction potential. In some cases, current-voltage curves were constructed using the peak current response to agonist or agonist+THP across a range of holding potentials (−60 to +60) applied as 10 mV steps, or as a voltage ramp. […] Traces are presented as the average of 3 traces after subtraction of the leak current. […] This rapid application technique yields currents with a rapid rise phase. THP was also bath applied 30 s prior to tests of steroid effects. Currents were recorded using an Axopatch 1D amplifier (Axon Instruments) filtered at 2 kHz (four-pole Bessel filter) and detected at 10 kHz (pClamp 5.1). Analysis of peak current was accomplished with pClamp 9.2 and Origin software (Microcal).
(§2) Mutagenesis: Site-directed mutations were made using the Quik-Change Mutagenesis Kit I or II (Stratagene Inc., La Jolla, Calif.). Numbering of mutated residues was based on the distance from arginine 99^19. Successful mutations were verified with double-stranded sequencing of end-products (Genewiz Inc., North Brunswick, N.J.).
(§3) Recombinant receptors: Human embryonic kidney (HEK)-293 cells were transfected with α4 β2δ or other indicated subunit combinations (see Supplementary Methods) and co-transfected with enhanced green fluorescent protein for visualization. GABA-gated currents were recorded at room temperature (20-22° C.) at a holding potential of −50 mV^17 using a pipet solution containing 120 mM: N-methyl-D-glucamine chloride. Internal [Cl^−] or the holding potential were varied to alter the direction of Cl^− flow. […] Currents were recorded using an Axopatch 1D amplifier (Axon Instruments) filtered at 2 kHz (four-pole Bessel filter), detected at 10 kHz and analyzed with pClamp 9.2. Desensitization rate was determined using non-linear curve-fitting routines (Origin, Microcal; see next section).

[3] = molecular target: T3, α4(R353K)β2δ GABAA receptors (UniProt P63138+Q9D6F4, R389K); assay: as above; assay type: cell-based, mouse α4
T3 construct: expressed in transfected cells; host or cells: HEK-293
Experimental: as §1, §2, §3

[4] = molecular target: T4, α4[R353Q]β2δ GABAA receptors (UniProt P63138+Q9D6F4, R389Q); assay: as above; assay type: cell-based, mouse α4
T4 construct: expressed in transfected cells; host or cells: HEK-293
Experimental: as §1, §2, §3

[5] = system: α4β2δ GABAA receptors with α4 mutations R351Q, K352Q, K316Q, R317Q and K318Q; assay: as above; assay type: cell-based, mouse α4
Experimental: as §1, §2, §3

Q: How did the “effect on outward current” value [1] turn out when `CC(=O)[C@H]1CC[C@H]2[C@@H]3CC[C@H]4C[C@H](O)CC[C@]4(C)[C@H]3CC[C@]12C` [THP, 3α-OH-5α[β]-pregnan-20-one] was run?
A: The value was “either increased or had no effect”.

Q: What about the “steroid-induced reduction in outward current at mutant receptor” value [2] of the same compound?
A: The value was “prevented the steroid-induced reduction in outward current”.

Q: And the “THP inhibition of outward current at mutant receptor” value [3]?
A: Its value is “did not prevent THP inhibition of outward current”.

Q: What about the “effect on inward current” value [4] of the same compound?
A: Its value is “increased inward current”.

Q: What about the “steroid-induced reduction in outward current at mutant receptor” value ([4]; R353Q) of the same compound?
A: The value was “prevented the steroid-induced reduction in outward current”.

Q: And the “effect of mutation on THP inhibition of outward current” value [5]?
A: Its value is “had no effect”.
